Assay: Metasilicate dissolution experiment (gastric acid conditions, pH 1.5)
Type: physicochemical
Protocol: A dissolution experiment was performed using sodium metasilicate nonahydrate (Na2SiO3.9H2O).
(2) The pH of the solution was lowered to pH 1.5 using 37% hydrochloric acid and measured again.
(1) 150 ml of water was added in a 250 ml beaker, adjusted in pH to a value of 1.5 with 37% hydrochloric acid to meet the standards for gastric acid of the human body, and combined with another water to a volume of 250 ml.
(2) 1 g of metasilicate nonahydrate (Na2SiO3.9H2O) was added to the solution of step (1).

Compound | pH of solution in pure water (1 g in 500 ml pure water) | behaviour of dissolved silicate after lowering pH (1 g in 500 ml pure water, pH lowered to 1.5 using 37% hydrochloric acid) | dissolution of silicate added to acidic water (1 g added to 250 ml water at pH 1.5 (37% hydrochloric acid))
O.O.O.O.O.O.O.O.O.O=[Si]([O-])[O-].[Na+].[Na+] [Comparative Example 1, sodium metasilicate nonahydrate (Na2SiO3.9H2O)] | 12.23 | gelled while agglomerating | –
O.O.O.O.O.O.O.O.O.O=[Si]([O-])[O-].[Na+].[Na+] [Comparative Example 2, metasilicate nonahydrate (Na2SiO3.9H2O)] | – | – | precipitated rather than dissolved

Source: patent US20220073541A1, “SILICON ION COMPLEX ORGANIZED WITH CARBOXYLIC ACID, METHOD FOR MANUFACTURING COMPLEX, AND PRODUCT USING SAME” (KOREA NEW TECHNOLOGY CO.,LTD., priority 2019, published 2022)
